Measured values: patent US20100130597A1, “DNA-PKCS MODULATES ENERGY REGULATION AND BRAIN FUNCTION” (The United State of America, as represented by the …, priority 2007, published 2010)

What was measured:
Light/dark chamber test = format: in vivo; settings: treated vs untreated mice
Protocol: WT and SCID mice were tested in another anxiety test using the light-dark box (Bourin and Hascoet, Eur J Pharmacol 463:55 (2003)). The light-dark box test is based on the innate aversion of rodents to brightly illuminated areas and on the spontaneous exploratory behavior of rodents in response to a mildly stressful situation, that is, a novel environment and light (Crawley and Goodwin Pharmacol Biochem Behav 13:167, 1980). In the light-dark test, increased activity in the light compartment indicates decreased anxiety.
(§1) Elevated plus maze tests, light/dark chamber tests, forced swim tests (FST) and hot plate tests were performed as described earlier.

AMPK [1] = test: AMPK activation in quiescent MCF7 cells; format: cell-based; settings: 1 and 2.5 μM, FIG. 20
Protocol: MCF7 cells were obtained from the ATCC. MCF7 cells in G0 were treated with varying doses of H2O2 (FIG. 1). The cells were examined while in the G0 phase of their life cycle to mimic the post-mitotic state of cells in vivo. Low passage MCF-7 cells in G0 were exposed to varying concentrations of H2O2 for 60 minutes with or without Euk-134 or ionizing radiation (5 Gy). For Western blot analysis of DNA-PKcs activation and the activation of other signaling pathways in this study, the following antibodies were used: ACC1 (Cell Signaling); p-ACC1 (Upstate); AMP-activated protein kinase (AMPK; Cell Signaling); p-AMPK(T172) (Cell Signaling); DNA-PK (Lab Vision); p53 (Novocastra); p-DNA-PK(S2056) (Abeam); p-p53(S15) (Cell Signaling); γ-H2AX (Upstate); 53BP1 (Novus Biologicals).
ENLITEN ATP assay kit (Promega) and ApoGlow assay kit (Cambrex), respectively. […] To determine whether the AMPK-inhibitory function of DNA-PKcs is cell autonomous, quiescent MCF7 cells were treated with 1 and 2.5 μM NU7026.

[2] = Glucose levels, insulin tolerance and glucose tolerance tests in treated mice; format: in vivo; settings: mice, summary statement
Protocol: The therapeutic potential of DNA-PKcs inhibitors to treat insulin resistance and diabetes was tested in vivo using high-fat induced type 2 diabetes and obesity models. We examined the effects of DNA-PKcs inhibition by feeding C57BL6/J mice with Compound 36 (Cpd36) or vehicle. Mice were treated with Cpd36 (8 mg/kg body weight) twice daily by oral gavage for three months in all efficacy studies shown in FIGS. 40-47.

MCF7 cells = test: Reactive oxygen species production in MCF7 cells (CM-H2DCFDA); format: cell-based; settings: NU 7026 5 μM 12 h, DNP 200 μM 10 min, Troglitazone 30 μM 4 hr, Euk-134 5 μM 3 h, MnTBAP 14 μM 3 h, FIG. 4
Excerpt: Measurement of intracellular reactive oxygen species was based on changes in the fluorescence intensity of redox-sensitive fluorescent probes, including CM-H2DCFDA. CM-H2DCFDA is a probe for intracellular hydrogen peroxide (Jou M J et al. J. Biomed Sci 9:507 (2002)). CM-H2DCFDA rapidly diffuses into cells, reacts with intracellular glutathione and thiols, and yields a fluorescent product that is retained inside the cell (Shanker G et al. Mol Brain Res 128:48, 2004). The fluorescence intensity of CM-H2DCFDA is therefore indicative of the amount of intracellular H2O2.
Briefly, cells were incubated with 10 uM CM-H2DCFDA for 30 min at 37° C. The cells were then excited at the peak excitation wavelength for CM-H2DCFDA (485 nm) and emissions at 535 nm were measured with Wallac Victor multilable counter (Perkin Elmer). For glucose treatment, the total sugar content in the media was kept constant by supplementing with mannitol, which is not metabolized.
MCF-7 cells were obtained from ATCC and grown as recommended. Confluent MCF-7 cells were incubated with serum-free DMEM medium for 3-12 h before the experiment. MCF-7 cells were then treated with DNA-PK inhibitor NU 7026 (5 μM; Calbiochem) for 12 h, DNP (200 μM; Sigma) for 10 min, Troglitazone (30 μM) for 4 hr, Euk-134 (5 μM; Eukarion) for 3 h, MnTBAP (14 μM; Calbiochem) for 3 h and Resveratrol.

[3] = Hot plate test, latency for pain reaction; format: in vivo, mice; settings: FIG. 48E
Protocol: Epidemiological studies indicate that people with mood disorders are twice as likely to have chronic pain compared to people without mood disorders (Ohayon et al., Arch. Gen. Psychiatry 60: 39-47 (2003)). Although it is possible that pain contributes to the depressed mood, it is also possible that perception of pain is increased in people with mood disorders. To determine whether SCID mice have altered pain tolerance, the latency for pain reaction to a hot plate was measured. […] (FIG. 30) and at 55° C.
Because tolerance to pain (Example 26) is also linked to the serotonergic pathways, measurements of the latency to pain reaction on hot plate after saline, serotonin reuptake inhibitor fluoxetine (Prozac) or serotonin antagonist GR38032F (Zofran) injection were made.
as §1

C2C12 cells = test: Mitochondrial DNA copy number in C2C12 cells; format: cell-based; settings: C2C12 cells, 2.5 μM, FIG. 49C
Protocol: Quantitative Real-Time PCR was used to assess the relative amounts of nuclear DNA and mtDNA, to permit assessment of the ratio of mtDNA to nucleic DNA, which reflects the tissue concentration of mitochondria per cell. Muscle tissues were homogenized and digested with Proteinase K overnight in a lysis buffer for DNA extraction by conventional phenol-chloroform method. Quantitative PCR was performed using the following primers: […]
Increased mitochondrial function boosts energy production and physical endurance. […] Further tests were therefore conducted to ascertain whether DNA-PKcs inhibitor elevates mitochondrial biogenesis and expression of PGC-1α and Sirt, which are important for mitochondrial biogenesis. […] It is important to note that only 2.5 μM of NU7026 was required to induce a similar level of Sirt1 to that induced by 25-50 μM Resveratrol, a well-known, potent Sirt1 activator. In FIG. 49C, mitochondrial DNA copy number increased (>1.8 fold) in C2C12 cells after 2.5 μM NU7026 treatment.

AMPK [4] = test: AMPK activation in mouse embryonic fibroblasts (wild-type, DNA-PK null, LKB1-null); format: cell-based
Excerpt: The hypothesis that DNA-PKcs inhibition/deficiency induces activation of the LKB1-AMPK pathway was further tested using DNA-PK^−/− (null) mouse embryonic fibroblasts (MEFs) and LKB1-null MEFs treated with NU7026.

[5] = tested on: mouse embryonic fibroblasts and Chinese hamster ovary cells; settings: Veuger et al 2003; Griffin et al. 2005; cited from earlier work
LKB1 = LKB1 IP kinase assay of muscle of treated mice; format: in vivo; settings: mice treated with a low-dose, data not shown

## O=c1cc(N2CCOCC2)oc2c1ccc1ccccc12 [NU7026, 2-(morpholin-4-yl)-benzo[h]chomen-4-one]
Light/dark chamber test
  time in the dark compartment: less time in the dark compartment
  time in the light compartment: more time in the light compartment
  time to enter the light chamber: quicker to enter the light chamber
AMPK [1]
  AMPK activation: activated AMPK
[2]
  serum glucose levels: decreased serum glucose levels
MCF7 cells
  Reactive oxygen species production: significantly decreased
[3]
  time remaining on a hot surface: remain on a hot surface for longer periods of time
[3]; hot plate
  pain sensation: decreased pain sensation
C2C12 cells
  mitochondrial DNA copy number increase: > 1.8 fold
AMPK [4]; DNA-PK−/− MEFs, FIG. 52A
  AMPK activation: significantly enhanced
AMPK [4]; LKB1-null MEFs, FIG. 52B
  AMPK activation: not in LKB1-null MEFs
AMPK [4]; wild-type MEFs, FIG. 52
  AMPK activation: activated
[5]
  sensitization to radiation in vitro: sensitize mouse embryonic fibroblasts and Chinese hamster ovary cells to radiation
LKB1
  LKB1 activity in muscles: strong induction of LKB1 activity
